According to US20220387608A1, “ADRENOMEDULLIN-ANALOGUES FOR LONG-TERM STABILIZATION AND THEIR USE” (Bayer Aktiengesellschaft, priority 2019, published 2022):
Positions of bridges follow the written chain, without caps; N, C: chain ends. Non-standard residues stand in square brackets, D forms with d. Residues, ends and D or L forms follow the SMILES beside them. *: point of attachment. X1 = CN(C)c1ccc2c(c1)Oc1cc(N(C)C)ccc1C21OC(=O)c2ccc(C(=O)*)cc21; C18 diacid = O=C(O)CCCCCCCCCCCCCCCCC(=O)*; PEG3 = NCCOCCOCCOCCC(=O)O; Dap = NC[C@H](N)C(=O)O

Assays:
[1] = molecular target: T1, AM1R (Homo sapiens, UniProt O60895+Q16602); test: Activity determination in vitro: cAMP/CRE-luciferase reporter assay in HEK293 cells transiently co-transfected with CLR and RAMP2; type: cell-based; details: for Emax: HEK293, normalized to [G14]ADM(14-52); for EC50: HEK293 with CLR/RAMP2, CRE-luciferase, 3 h stimulation
T1 construct: EYFP; ECFP; expressed in transfected cells; host or cells: HEK-293 (transient co-transfection)
Summary of the method: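 HEK-293 cells transiently co-transfected with CLR-EYFP, RAMP2-ECFP and a CRE-luc2P reporter, stimulated 3 h at 37° C with eight ligand concentrations in triplicate. Luminescence read by ONE-Glo, corrected to 5 μM forskolin, normalized to [G14]ADM(14-52) standard, and fitted by non-linear regression.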

[2] = Stability determination of TAMRA-labelled adrenomedullin analogues in human blood plasma; type: in vitro ADME; details: 37° C., 10^-5 M, slow-decay phase half-life, read-out: t1/2 (slow) (converted)
Method: The stability of the peptides was investigated using fluorescently labeled analogues, which were prepared as described above.
The TAMRA-labeled analogues were dissolved in 1.5 m1 of human blood plasma to a concentration of 10^−5 M and incubated at 37° C. under constant shaking. Samples of 150 μl were taken at different time points and precipitated with 300 μl Ethanol/ACN (1:1) for at least 1 h at −20° C. After centrifugation for 30 s at 12000 rpm, the supernatant was collected and incubated at −20° C. for at least 3 h. Subsequently, it was transferred into Costar® Spin-X® Centrifuge Tube Filters (0.22 μm) and centrifuged for 1 h at 12000 rpm. The samples were analyzed by RP-HPLC using a VariTide RPC column (Agilent Technologies, 250 mm×4.6 mm, […], 200 Å) with linear gradients of 0.1% TFA in water and 0.08% TFA in ACN; fluorescence measurement (λex=525 nm; λem=572 nm) was used for the detection of the analogues and their N-terminal fragments. The percentage of intact peptide was determined by peak integration. The values of peaks containing additional cleavage fragments were corrected by comparing intensities of cleavage fragments and intact peptide using MALDI-MS analysis (UltraflexIII, Bruker). The stability of the peptides was calculated with GraphPad Prism 5 (GraphPad Software) using a two phase exponential decay function for the determination of slow-decay phase half-lives (ln(2)/Kslow; Kslow: rate constant of slow part of exponential decay).

T1 sequence (Q16602 23-461): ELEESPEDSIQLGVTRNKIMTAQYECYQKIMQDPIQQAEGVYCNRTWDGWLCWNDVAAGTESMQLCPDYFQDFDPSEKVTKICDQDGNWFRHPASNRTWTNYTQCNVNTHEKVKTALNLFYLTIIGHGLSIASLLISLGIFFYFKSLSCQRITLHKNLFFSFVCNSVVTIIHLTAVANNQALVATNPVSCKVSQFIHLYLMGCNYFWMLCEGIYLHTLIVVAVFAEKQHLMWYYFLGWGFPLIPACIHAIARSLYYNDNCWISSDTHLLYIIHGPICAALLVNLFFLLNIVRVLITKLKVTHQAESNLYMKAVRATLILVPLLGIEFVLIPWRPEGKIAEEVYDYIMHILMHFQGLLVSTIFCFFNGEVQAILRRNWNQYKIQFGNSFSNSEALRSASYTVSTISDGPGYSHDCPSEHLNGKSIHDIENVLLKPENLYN
T1 sequence (O60895 43-175): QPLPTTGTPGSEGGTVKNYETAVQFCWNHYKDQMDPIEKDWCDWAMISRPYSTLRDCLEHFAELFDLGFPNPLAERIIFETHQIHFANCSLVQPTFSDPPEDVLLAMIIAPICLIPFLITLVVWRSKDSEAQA

SMILES	Emax [1]	EC50 [1]	half-life [2]
CC[C@H](C)[C@H](NC(=O)[C@H](CCC(N)=O)NC(=O)[C@H](Cc1c[nH]cn1)NC(=O)[C@H](C)NC(=O)[C@H](CC(C)C)NC(=O)[C@H](CCCCN)NC(=O)[C@H](CCC(N)=O)NC(=O)[C@@H](NC(=O)[C@@H](NC(=O)[C@@H]1CCC(=O)NC[C@H](NC(=O)CNC(=O)[C@@H](N)CCCCNC(=O)CCCCCCCCCCCCCCCCC(=O)O)C(=O)N[C@@H](CCCNC(=N)N)C(=O)N[C@@H](Cc2ccccc2)C(=O)NCC(=O)N[C@@H]([C@@H](C)O)C(=O)N1)[C@@H](C)O)C(C)C)C(=O)N[C@@H](Cc1ccc(O)cc1)C(=O)N[C@@H](CCC(N)=O)C(=O)N[C@@H](Cc1ccccc1)C(=O)N[C@H](C(=O)N[C@@H](CC(=O)O)C(=O)N[C@@H](CCCCN)C(=O)N[C@@H](CC(=O)O)C(=O)N[C@@H](CCCCN)C(=O)N[C@@H](CC(=O)O)C(=O)N[C@@H](CC(N)=O)C(=O)N[C@H](C(=O)N[C@@H](C)C(=O)N1CCC[C@H]1C(=O)N[C@@H](CCCNC(=N)N)C(=O)N[C@@H](CO)C(=O)N[C@@H](CCCCN)C(=O)N[C@H](C(=O)N[C@@H](CO)C(=O)N1CCC[C@H]1C(=O)N[C@@H](CCC(N)=O)C(=O)NCC(=O)N[C@@H](Cc1ccc(O)cc1)C(N)=O)[C@@H](C)CC)C(C)C)[C@@H](C)O [Example 15, ((3S,9S,12S,15S,21S)-15-(2-((S)-2-amino-6-(17-carboxyoctadecanamido)hexanamido)acetamido)-9-benzyl-12-(3-guanidinopropyl)-3-((R)-1-hydroxyethyl)-2,5,8,11,14,18-hexaoxo-1,4,7,10,13,17-hexaazacyclohenicosane-21-carbonyl)-L-threonyl-ADM(23-52)] (H-K(C18 diacid)G[Dap]RFGTETVQKLAHQIYQFTDKDKDNVAPRSKISPQGY-NH2; lactam 3-8)	89 ± 2%	3.4 nM	
CC[C@H](C)[C@H](NC(=O)[C@H](CCC(N)=O)NC(=O)[C@H](Cc1c[nH]cn1)NC(=O)[C@H](C)NC(=O)[C@H](CC(C)C)NC(=O)[C@H](CCCCN)NC(=O)[C@H](CCC(N)=O)NC(=O)[C@@H](NC(=O)[C@@H](NC(=O)[C@@H]1CCC(=O)NC[C@H](NC(=O)CNC(=O)[C@@H](N)CCCCNC(=O)CCCCCCCCCCCCCCCCC(=O)O)C(=O)N[C@@H](CCCNC(=N)N)C(=O)N[C@@H](Cc2ccccc2)C(=O)NCC(=O)N[C@@H]([C@@H](C)O)C(=O)N1)[C@@H](C)O)C(C)C)C(=O)N[C@@H](Cc1ccc(O)cc1)C(=O)N[C@@H](CCC(N)=O)C(=O)N[C@@H](Cc1ccccc1)C(=O)N[C@H](C(=O)N[C@@H](CC(=O)O)C(=O)N[C@@H](CCCCN)C(=O)N[C@@H](CC(=O)O)C(=O)N[C@@H](CCCCN)C(=O)N[C@@H](CC(=O)O)C(=O)N[C@@H](CC(N)=O)C(=O)N[C@H](C(=O)N[C@@H](C)C(=O)N1CCC[C@H]1C(=O)N[C@H]1CCCCNC(=O)C[C@@H](C(=O)N2CCC[C@H]2C(=O)N[C@@H](CCC(N)=O)C(=O)NCC(=O)N[C@@H](Cc2ccc(O)cc2)C(N)=O)NC(=O)[C@H]([C@@H](C)CC)NC(=O)[C@H](CCCCN)NC(=O)[C@H](CO)NC1=O)C(C)C)[C@@H](C)O [Example 16] (H-K(C18 diacid)G[Dap]RFGTETVQKLAHQIYQFTDKDKDNVAPKSKIDPQGY-NH2; lactam 3-8, 31-35)	100 ± 5%	1.4 nM	
CC[C@H](C)[C@H](NC(=O)[C@H](CCC(N)=O)NC(=O)[C@H](Cc1c[nH]cn1)NC(=O)[C@H](C)NC(=O)[C@H](CC(C)C)NC(=O)[C@H](CCCCN)NC(=O)[C@H](CCC(N)=O)NC(=O)[C@@H](NC(=O)[C@@H](NC(=O)[C@@H]1CCC(=O)NC[C@H](NC(=O)CNC(=O)[C@@H](N)CCCCNC(=O)CCCCCCCCCCCCCCCCC(=O)O)C(=O)N[C@@H](CCCNC(=N)N)C(=O)N[C@@H](Cc2ccccc2)C(=O)NCC(=O)N[C@@H]([C@@H](C)O)C(=O)N1)[C@@H](C)O)C(C)C)C(=O)N[C@@H](Cc1ccc(O)cc1)C(=O)N[C@@H](CCC(N)=O)C(=O)N[C@@H](Cc1ccccc1)C(=O)N[C@H](C(=O)NCCOCCOCCOCCC(=O)N[C@@H](CC(=O)O)C(=O)N[C@@H](CC(N)=O)C(=O)N[C@H](C(=O)N[C@@H](C)C(=O)N1CCC[C@H]1C(=O)N[C@H]1CCCCNC(=O)C[C@@H](C(=O)N2CCC[C@H]2C(=O)N[C@@H](CCC(N)=O)C(=O)NCC(=O)N[C@@H](Cc2ccc(O)cc2)C(N)=O)NC(=O)[C@H]([C@@H](C)CC)NC(=O)[C@H](CCCCN)NC(=O)[C@H](CO)NC1=O)C(C)C)[C@@H](C)O [Example 17] (H-K(C18 diacid)G[Dap]RFGTETVQKLAHQIYQFT[PEG3]DNVAPKSKIDPQGY-NH2; lactam 3-8, 28-32)	77 ± 3%	5 nM	
CC[C@H](C)[C@H](NC(=O)[C@H](CCC(N)=O)NC(=O)[C@H](Cc1c[nH]cn1)NC(=O)[C@H](C)NC(=O)[C@H](CC(C)C)NC(=O)[C@H](CCCCN)NC(=O)[C@H](CCC(N)=O)NC(=O)[C@@H](NC(=O)[C@@H](NC(=O)[C@@H]1CSSC[C@H](NC(=O)CNC(=O)CN)C(=O)N[C@@H](CCCNC(=N)N)C(=O)N[C@@H](Cc2ccccc2)C(=O)NCC(=O)N[C@@H]([C@@H](C)O)C(=O)N1)[C@@H](C)O)C(C)C)C(=O)N[C@@H](Cc1ccc(O)cc1)C(=O)N[C@@H](CCC(N)=O)C(=O)N[C@@H](Cc1ccccc1)C(=O)N[C@H](C(=O)N[C@@H](CC(=O)O)C(=O)N[C@@H](CCCCN)C(=O)N[C@@H](CC(=O)O)C(=O)N[C@@H](CCCCN)C(=O)N[C@@H](CC(=O)O)C(=O)N[C@@H](CC(N)=O)C(=O)N[C@H](C(=O)N[C@@H](C)C(=O)N1CCC[C@H]1C(=O)N[C@@H](CCCNC(=N)N)C(=O)N[C@@H](CO)C(=O)N[C@@H](CCCCN)C(=O)N[C@H](C(=O)N[C@@H](CO)C(=O)N1CCC[C@H]1C(=O)N[C@@H](CCC(N)=O)C(=O)NCC(=O)N[C@@H](Cc1ccc(O)cc1)C(N)=O)[C@@H](C)CC)C(C)C)[C@@H](C)O [Reference, reference compound]	99 ± 1%	3.5 nM	

Next, values leading:

Emax [1]	EC50 [1]	half-life [2]	SMILES
		149 h	CC[C@H](C)[C@H](NC(=O)[C@H](CCC(N)=O)NC(=O)[C@H](Cc1c[nH]cn1)NC(=O)[C@H](C)NC(=O)[C@H](CC(C)C)NC(=O)[C@H](CCCCN)NC(=O)[C@H](CCC(N)=O)NC(=O)[C@@H](NC(=O)[C@@H](NC(=O)[C@@H]1CSSC[C@H](NC(=O)CNC(=O)[C@H](CCCCNC(=O)CCCCCCCCCCCCCCCCC(=O)O)NC(=O)c2ccc3c(c2)C2(OC3=O)c3ccc(N(C)C)cc3Oc3cc(N(C)C)ccc32)C(=O)N[C@@H](CCCNC(=N)N)C(=O)N[C@@H](Cc2ccccc2)C(=O)NCC(=O)N[C@@H]([C@@H](C)O)C(=O)N1)[C@@H](C)O)C(C)C)C(=O)N[C@@H](Cc1ccc(O)cc1)C(=O)N[C@@H](CCC(N)=O)C(=O)N[C@@H](Cc1ccccc1)C(=O)N[C@H](C(=O)N[C@@H](CC(=O)O)C(=O)N[C@@H](CCCCN)C(=O)N[C@@H](CC(=O)O)C(=O)N[C@@H](CCCCN)C(=O)N[C@@H](CC(=O)O)C(=O)N[C@@H](CC(N)=O)C(=O)N[C@H](C(=O)N[C@@H](C)C(=O)N1CCC[C@H]1C(=O)N[C@@H](CCCNC(=N)N)C(=O)N[C@@H](CO)C(=O)N[C@@H](CCCCN)C(=O)N[C@H](C(=O)N[C@@H](CO)C(=O)N1CCC[C@H]1C(=O)N[C@@H](CCC(N)=O)C(=O)NCC(=O)N[C@@H](Cc1ccc(O)cc1)C(N)=O)[C@@H](C)CC)C(C)C)[C@@H](C)O [TAM-5]
		> 144 h	CC[C@H](C)[C@H](NC(=O)[C@H](CCC(N)=O)NC(=O)[C@H](Cc1c[nH]cn1)NC(=O)[C@H](C)NC(=O)[C@H](CC(C)C)NC(=O)[C@H](CCCCN)NC(=O)[C@H](CCC(N)=O)NC(=O)[C@@H](NC(=O)[C@@H](NC(=O)[C@@H]1CSSC[C@H](NC(=O)CNC(=O)[C@H](CCCCNC(=O)CCCCCCCCCCCCCCCCC(=O)O)NC(=O)c2ccc3c(c2)C2(OC3=O)c3ccc(N(C)C)cc3Oc3cc(N(C)C)ccc32)C(=O)N[C@@H](CCCNC(=N)N)C(=O)N[C@@H](Cc2ccccc2)C(=O)NCC(=O)N[C@@H]([C@@H](C)O)C(=O)N1)[C@@H](C)O)C(C)C)C(=O)N[C@@H](Cc1ccc(O)cc1)C(=O)N[C@@H](CCC(N)=O)C(=O)N[C@@H](Cc1ccccc1)C(=O)N[C@H](C(=O)N[C@@H](CC(=O)O)C(=O)N[C@@H](CCCCN)C(=O)N[C@@H](CC(=O)O)C(=O)N[C@@H](CCCCN)C(=O)N[C@@H](CC(=O)O)C(=O)N[C@@H](CC(N)=O)C(=O)N[C@H](C(=O)N[C@@H](C)C(=O)N1CCC[C@H]1C(=O)N[C@H]1CCCCNC(=O)C[C@@H](C(=O)N2CCC[C@H]2C(=O)N[C@@H](CCC(N)=O)C(=O)NCC(=O)N[C@@H](Cc2ccc(O)cc2)C(N)=O)NC(=O)[C@H]([C@@H](C)CC)NC(=O)[C@H](CCCCN)NC(=O)[C@H](CO)NC1=O)C(C)C)[C@@H](C)O [TAM-13] (X1-K(C18 diacid)GCRFGTCTVQKLAHQIYQFTDKDKDNVAPKSKIDPQGY-NH2; disulfide 3-8; lactam 31-35)
